Series [1] in a line: Disposition (half-life) of mitiglinide. As to conditions: human, in vivo, oral; single dose of 5 mg and more.
Series [2] is described as follows: Required single dose to reduce HbA1C value. Format: in vivo. The note with it: as a single dose.
Series [3] relates to type II diabetic patients. Briefly: Clinical study in type II diabetic patients. It is filed as in vivo, human. As to conditions: for Change in HbA1C value, mean value: three times a day just before meals; for Change in 1 hour value of postprandial plasma glucose (PPG), mean value / Change in 2 hour value of postprandial plasma glucose (PPG), mean value / Change in early morning fasting plasma glucose (FPG), mean: at the final evaluation. On the procedure:
Using the pharmaceutical composition described in Example 1, a clinical study was conducted in type II diabetic patients under the following conditions.
Test drug and Mode of administration: Every patient orally administered either of a combination selected from the following combination groups (one tablet from each) three times a day just before meals (within 5 minutes before starting meal): • The present invention group: (1)+(4) • Positive control group: (2)+(3) • Positive control group: (3)+(4) • (1) a tablet comprising 10 mg of mitiglinide calcium salt hydrate; • (2) a tablet comprising 0.2 mg of voglibose (chemical name: (+)-1L-[1(OH),2,4,5/3]-5-[2-hydroxy-1-(hydroxymethyl)-ethyl]amino-1-C-(hydroxymethyl)-1,2,3,4-cyclohexaneterol); • (3) a placebo tablet of mitiglinide calcium salt hydrate not containing any active ingredient; and • (4) a placebo tablet of voglibose not containing any active ingredient. • Treatment period: 12 weeks
Observation item: The following items were measured before administration, at a certain fixed time after the start of administration and at the completion of administration, and their changes were calculated, or the frequency of adverse drug reactions was calculated, and then evaluated.

The next series relates to healthy male adults. Kind of series: Clinical study on administration timing. Format: in vivo, human. On the procedure: Administration timing before taking a meal was evaluated in healthy male adults. Used test drugs were a tablet comprising 10 mg of mitiglinide calcium salt hydrate and a placebo tablet. The tablet comprising 10 mg of mitiglinide calcium salt hydrate was administered at 0.5 min, 5 min, 10 min or 30 min before starting meal (Positive group), while the placebo tablet was administered at 0.5 min before starting meal. After administration, blood glucose levels were measured at starting meal and evaluated.

Setting [4] is: in comparison with voglibose and placebo.

Counter-ions that a name gives are not always drawn. Bounds are passed on as bounds.

One may read the half-life as the time needed for the level to fall by half in the phase considered. A higher half-life goes with slow loss.

In turn, `O=C(O)[C@H](CC(=O)N1C[C@H]2CCCC[C@H]2C1)Cc1ccccc1` [mitiglinide] had a half-life in series [1] of approximately 1.5 h. Further, the “required dosage to reduce HbA1C value significantly” value in series [2] is not below 5 mg.

For `OCC(CO)N[C@H]1C[C@](O)(CO)[C@@H](O)[C@H](O)[C@H]1O` [voglibose, (+)-1L-[1(OH),2,4,5/3]-5-[2-hydroxy-1-(hydroxymethyl)-ethyl]amino-1-C-(hydroxymethyl)-1,2,3,4-cyclohexaneterol, reference compound], the “Change in HbA1C value, mean value” in series [3] (4 weeks) is on record as −0.14%. The “Change in HbA1C value, mean value” in series [3] (8 weeks) is recorded as −0.14%. Moreover, the “Change in HbA1C value, mean value” in series [3] (12 weeks) was −0.11%. For the same compound, in series [3] (treatment period 12 weeks), the “Change in 1 hour value of postprandial plasma glucose (PPG), mean value” is -24.8 mg/dL; the “Change in 2 hour value of postprandial plasma glucose (PPG), mean value” is -5.1 mg/dL; the “Change in early morning fasting plasma glucose (FPG), mean” value amounted to 0.5 mg/dL; the “Frequency of adverse drug reactions: gastrointestinal disorder” value is recorded as 24.5%. For the same compound, the “Frequency of adverse drug reactions: hypoglycemic symptoms” value in series [3] (treatment period 12 weeks) was determined as 4.5%. In addition, the “HbA1C value (result in words)” value in series [3] (in comparison with placebo) is “significantly lowered”. Besides, the “Change in HbA1C value, mean value” in series [3] (the final evaluation) is on record as −0.11%.

On to `O=C(O)[C@H](CC(=O)N1C[C@H]2CCCC[C@H]2C1)Cc1ccccc1` [Mitiglinide calcium salt hydrate, (+)-monocalcium bis[(2S, 3a, 7a-cis)-α-benzylhexahydro-γ-oxo-2-isoindolinebutyrate] dihydrate], for which the “Blood glucose level at starting meal, mean” value is on record as 87.0 mg/dL in the series on healthy male adults (10 mg tablet administered 0.5 min before starting meal), 83.8 mg/dL with healthy male adults (10 mg tablet administered 5 min before starting meal), 84.2 mg/dL in the series on healthy male adults (10 mg tablet administered 10 min before starting meal) and 55.7 mg/dL with healthy male adults (10 mg tablet administered 30 min before starting meal). Besides, the “blood glucose level at starting meal (result in words)” value in the series with healthy male adults (administered at 30 minutes before starting meal) was “notably declined”; in the series on healthy male adults (administered within 10 minutes before starting meal) it was “able to maintain good blood glucose level”. Besides, the “Change in HbA1C value, mean value” in series [3] (4 weeks) is −0.30%; in series [3] (8 weeks), −0.46%; in series [3] (12 weeks), −0.46%; in series [3] (the final evaluation) it was −0.44%. In addition, the “HbA1C value (result in words)” value in series [3] (after 4 weeks after the start of administration, in comparison with voglibose and placebo) was “significantly lowered”. Also, the “Change in 1 hour value of postprandial plasma glucose (PPG), mean value” in series [3] (treatment period 12 weeks) is -53.1 mg/dL. Moreover, in series [3] (treatment period 12 weeks), the “Change in 2 hour value of postprandial plasma glucose (PPG), mean value” was -50.1 mg/dL. Besides, the “Change in early morning fasting plasma glucose (FPG), mean” value in series [3] (treatment period 12 weeks) is -8.0 mg/dL. In addition, the “frequencies of hypoglycemic symptoms and gastrointestinal disorders (result in words)” value in series [3] (human, in vivo) is recorded as “decreased”. Besides, the “Frequency of adverse drug reactions: gastrointestinal disorder” value in series [3] (human, in vivo, 12 weeks) is 17.6%. For the same compound, the “Frequency of adverse drug reactions: hypoglycemic symptoms” value in series [3] (human, in vivo, 12 weeks) was 2.0%. Also, the “1 hour and 2 hour values of postprandial plasma glucose (PPG) (result in words)” value in series [3] (setting [4]) was “significantly lowered”. Also, the “early morning fasting plasma glucose (FPG) (result in words)” value in series [3] (setting [4]) is given as “significantly lowered”.

The values are drawn from US20050215607A1, “Drug composition for prevention or inhibition of advance of diabetic complication” (priority 2002, published 2005).
